From ChEMBL document CHEMBL3137667, “[Drug-induced liver injury; fourteenth updated edition of the bibliographic database of liver injuries and related drugs]” (Gastroenterol Clin Biol, 2004)
Where a SMILES comes first, the peptide text is derived from it. Bridges are numbered along the chain shown (N, C = ends). [ ]: non-standard residue; d: D form. The star is where a group is joined. NMePhe(4-NMe2) = CN[C@@H](Cc1ccc(N(C)C)cc1)C(=O)O; Pip(4-oxo) = O=C1CCN[C@H](C(=O)O)C1; Picolinoyl(3-OH) = O=C(c1ncccc1O)*; Phg = N[C@H](C(=O)O)c1ccccc1; dAbu = CC[C@@H](N)C(=O)O

How the values were obtained:
[1] = human, serum
[2] = human
[3] = human; remark: listed apart in the source
[4] = Highest frequency of moderate liver toxicity observed during clinical trials, expressed as a percentage. [column '% BIOL' in source]; conditions: human
[5] = human; remark: listed apart in the source
[6] = human; remark: listed apart in the source
[7] = human; remark: listed apart in the source
[8] = human; remark: listed apart in the source
[9] = human; remark: listed apart in the source
[10] = Highest frequency of acute liver toxicity observed during clinical trials, expressed as a percentage. [column '% AIGUE' in source]; conditions: human
[11] = human; remark: listed apart in the source
[12] = human; remark: listed apart in the source
[13] = human, serum, 4383 h
[14] = Times to onset, minimal and maximal, observed in the indexed observations. [column 'DELAI' in source]; conditions: human
[15] = human, serum; remark: listed apart in the source
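For Hepatotoxicity (association with vascular disease) in this document: count of indexed literature references reporting vascular liver injury in humans, e.g. peliosis hepatitis, hepatic veno-occlusive disease or Budd-Chiari syndrome.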
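For Hepatotoxicity (benign tumour) in this document: value is a count of indexed literature references citing a benign tumour confirmed by histopathology.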
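For Hepatotoxicity (choleostasis) in this document: human cholestatic liver injury, shown by histopathology or by peak ALT or AST elevation over alkaline phosphatase ratio below 2, value counts indexed literature reports.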
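For Hepatotoxicity (chronic liver disease) in this document: chronic liver injury confirmed by histopathology or persistently raised serum aminotransferase activity beyond 6 months, value given as the count of indexed literature references.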
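For Hepatotoxicity (cirrhosis) in this document: value is a count of indexed literature references reporting cirrhosis confirmed by histopathology.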
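For Hepatotoxicity (cytolytic) in this document: human cytolytic liver injury, shown by histopathology or by a ratio above 5 of peak ALT or AST elevation to alkaline phosphatase elevation, value counts indexed references.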
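For Hepatotoxicity (granulomatous hepatitis) in this document: value is a count of indexed literature references reporting granulomatous liver disease confirmed by histopathology.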
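For Hepatotoxicity (malignant tumour) in this document: malignant tumour confirmed by histopathology, value gives the count of indexed literature references reporting it.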
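For Hepatotoxicity (severe hepatitis) in this document: human clinical data: severe hepatitis, meaning potentially life-threatening liver failure or clinically observed cases, the value counts how many indexed literature references report it.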
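For Hepatotoxicity (steatosis) in this document: steatosis confirmed by histopathology, value is the count of indexed references.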

Row | Structure (SMILES) | Hepatotoxicity (acute) [1] | Hepatotoxicity (association with vascular disease) [2] | Hepatotoxicity (benign tumour) [3] | Hepatotoxicity (moderate) [4] [%] | Hepatotoxicity (granulomatous hepatitis) [5] | Hepatotoxicity (cytolytic) [6] | Hepatotoxicity (steatosis) [7] | Hepatotoxicity (cirrhosis) [8] | Hepatotoxicity (malignant tumour) [9] | Hepatotoxicity (acute) [10] [%] | Hepatotoxicity (choleostasis) [11] | Hepatotoxicity (severe hepatitis) [12] | Hepatotoxicity (chronic liver disease) [13] | Hepatotoxicity (time to onset) [14] | Hepatotoxicity (moderate) [15]
1 | COc1ccnc(C[S+]([O-])c2nc3ccc(OC(F)F)cc3[nH]2)c1OC (stereo not given) [PANTOPRAZOLE] | 2 | 0 | 0 | 8.3 | 0 | 2 | 0 | 0 | 0 | 0 | 0 | 1 | 0 | 2 days - 8 days | 13
2 | OC[C@H]1O[C@@H](n2cnc3c2NC=NC[C@H]3O)C[C@@H]1O [PENTOSTATIN] | 1 | 0 | 0 | 81.3 | 0 | 1 | 1 | 0 | 0 | 0 | 0 | 2 | 0 | 1 day - 2 months | 16
3 | CC(=O)CCCCn1c(=O)c2c(ncn2C)n(C)c1=O [PENTOXIFYLLINE] | 2 | 0 | 0 | 0 | 0 | 0 | 0 | 0 | 0 | 0 | 2 | 0 | 0 | 3 weeks | 0
4 | CCC[C@H](N[C@@H](C)C(=O)N1[C@H](C(=O)O)C[C@@H]2CCCC[C@@H]21)C(=O)OCC [PERINDOPRIL] | 1 | 0 | 0 | 12.2 | 0 | 1 | 0 | 0 | 0 | 0 | 0 | 0 | 0 | 3 weeks | 1
5 | OCCN1CCN(CCCN2c3ccccc3Sc3ccc(Cl)cc32)CC1 [PERPHENAZINE] | 5 | 0 | 0 | 23.4 | 0 | 1 | 0 | 0 | 0 | 0.3 | 4 | 0 | 0 | 2 months | 2
6 | [H]/N=C(/N)N/C(=N/[H])NCCc1ccccc1 [PHENFORMIN] | 1 | 0 | 0 | 0 | 0 | 0 | 0 | 0 | 0 | 0 | 0 | 0 | 0 | 1 week | 0
7 | CC(COc1ccccc1)NN (stereo not given) [PHENOXYPROPAZINE] | 3 | 0 | 0 | 0 | 0 | 3 | 0 | 0 | 0 | 0 | 0 | 3 | 0 | 1.5 months - 4 months | 0
8 | O=c1[nH]c2ccccc2n1C1CCN(CCCC(c2ccc(F)cc2)c2ccc(F)cc2)CC1 [PIMOZIDE] | 0 | 0 | 0 | 0 | 0 | 0 | 0 | 0 | 0 | 0 | 0 | 0 | 0 | 3 days | 2
9 | O=C(CCBr)N1CCN(C(=O)CCBr)CC1 [PIPOBROMAN] | 1 | 0 | 0 | 0 | 0 | 1 | 0 | 0 | 0 | 0 | 0 | 0 | 0 | 2 months | 0
10 | NS(=O)(=O)c1cc(C(=O)O)cc(N2CCCC2)c1Oc1ccccc1 [PIRETANIDE] | 1 | 0 | 0 | 0 | 0 | 1 | 0 | 0 | 0 | 0 | 0 | 0 | 0 | 3 weeks | 0
11 | c1cnc(N2CCN(Cc3ccc4c(c3)OCO4)CC2)nc1 [PIRIBEDIL] | 0 | 0 | 0 | 10 | 0 | 0 | 0 | 0 | 0 | 0 | 0 | 0 | 0 | 12 days - 2.5 months | 2
12 | CN1CCC(=C2c3ccccc3CCc3sccc32)CC1 [PIZOTYLINE] | 1 | 0 | 0 | 0 | 0 | 0 | 0 | 0 | 0 | 0 | 1 | 0 | 0 | 12 days | 0
13 | CC[C@H]1NC(=O)[C@@H](NC(=O)c2ncccc2O)[C@@H](C)OC(=O)[C@H](c2ccccc2)NC(=O)[C@@H]2CC(=O)CCN2C(=O)[C@H](Cc2ccc(N(C)C)cc2)N(C)C(=O)[C@@H]2CCCN2C1=O [PRISTINAMYCIN 1A] ({Picolinoyl(3-OH)}-T[dAbu]P[NMePhe(4-NMe2)][Pip(4-oxo)][Phg]; ester 1-C) | 1 | 0 | 0 | 0 | 0 | 1 | 0 | 0 | 0 | 0 | 0 | 0 | 0 | 1.5 months | 0
14 | NC(=O)CCC/N=C(\c1ccc(Cl)cc1)c1cc(F)ccc1O [PROGABIDE] | 6 | 0 | 0 | 30 | 0 | 4 | 0 | 0 | 0 | 3.4 | 0 | 4 | 0 | 2 weeks - 6 months | 6
